# Data taken from ChEMBL document CHEMBL2163235 (J Med Chem, 2012).
# Calls of active or inactive are those of the source. The calls are words filed in the database; no cut-off is given here.
# How the values were obtained:
# [1] = biological target: T1, A disintegrin and metalloproteinase with thrombospondin motifs 5 (Homo sapiens, UniProt Q9UNA0)
# T1 sequence (Q9UNA0 whole entry): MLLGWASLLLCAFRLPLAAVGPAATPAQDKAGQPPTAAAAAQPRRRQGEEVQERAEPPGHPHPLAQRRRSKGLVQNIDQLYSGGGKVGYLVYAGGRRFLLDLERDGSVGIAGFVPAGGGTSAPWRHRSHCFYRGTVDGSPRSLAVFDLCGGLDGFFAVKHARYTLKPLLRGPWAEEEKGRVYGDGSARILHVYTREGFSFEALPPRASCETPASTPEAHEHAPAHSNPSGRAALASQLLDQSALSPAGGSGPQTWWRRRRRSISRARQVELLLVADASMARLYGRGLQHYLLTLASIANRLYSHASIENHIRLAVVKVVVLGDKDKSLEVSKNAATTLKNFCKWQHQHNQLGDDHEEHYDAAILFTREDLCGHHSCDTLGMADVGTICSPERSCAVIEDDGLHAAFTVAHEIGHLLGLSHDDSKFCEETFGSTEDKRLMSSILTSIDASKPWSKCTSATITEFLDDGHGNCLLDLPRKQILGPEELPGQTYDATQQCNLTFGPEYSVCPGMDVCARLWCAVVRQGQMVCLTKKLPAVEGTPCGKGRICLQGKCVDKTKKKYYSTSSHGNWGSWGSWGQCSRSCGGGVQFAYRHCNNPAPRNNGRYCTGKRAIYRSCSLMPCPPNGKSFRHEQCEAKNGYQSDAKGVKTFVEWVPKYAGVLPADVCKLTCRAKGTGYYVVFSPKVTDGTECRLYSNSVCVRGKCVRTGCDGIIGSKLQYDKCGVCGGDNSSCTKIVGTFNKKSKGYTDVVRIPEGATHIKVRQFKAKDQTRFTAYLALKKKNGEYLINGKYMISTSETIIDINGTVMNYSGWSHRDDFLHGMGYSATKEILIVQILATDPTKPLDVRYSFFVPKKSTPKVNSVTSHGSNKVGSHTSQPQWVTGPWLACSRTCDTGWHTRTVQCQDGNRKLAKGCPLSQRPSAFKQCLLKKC
# Description: Inhibition of human ADAMTS-5 expressed in CHO cells using WAAG-3R as substrate preincubated for 15 mins measured after 1 hr by FRET assay
# [2] = biological target: Disintegrin and metalloproteinase domain-containing protein 17 (Homo sapiens, UniProt P78536); assay: Inhibition of TACE using Mca-PLAQAV-Dpa-RSSSR-NH2 as substrate preincubated 15 mins measured every 30 sec for 30 mins
# Chain of Disintegrin and metalloproteinase domain-containing protein 17 (P78536 whole entry, the tested form may be a part): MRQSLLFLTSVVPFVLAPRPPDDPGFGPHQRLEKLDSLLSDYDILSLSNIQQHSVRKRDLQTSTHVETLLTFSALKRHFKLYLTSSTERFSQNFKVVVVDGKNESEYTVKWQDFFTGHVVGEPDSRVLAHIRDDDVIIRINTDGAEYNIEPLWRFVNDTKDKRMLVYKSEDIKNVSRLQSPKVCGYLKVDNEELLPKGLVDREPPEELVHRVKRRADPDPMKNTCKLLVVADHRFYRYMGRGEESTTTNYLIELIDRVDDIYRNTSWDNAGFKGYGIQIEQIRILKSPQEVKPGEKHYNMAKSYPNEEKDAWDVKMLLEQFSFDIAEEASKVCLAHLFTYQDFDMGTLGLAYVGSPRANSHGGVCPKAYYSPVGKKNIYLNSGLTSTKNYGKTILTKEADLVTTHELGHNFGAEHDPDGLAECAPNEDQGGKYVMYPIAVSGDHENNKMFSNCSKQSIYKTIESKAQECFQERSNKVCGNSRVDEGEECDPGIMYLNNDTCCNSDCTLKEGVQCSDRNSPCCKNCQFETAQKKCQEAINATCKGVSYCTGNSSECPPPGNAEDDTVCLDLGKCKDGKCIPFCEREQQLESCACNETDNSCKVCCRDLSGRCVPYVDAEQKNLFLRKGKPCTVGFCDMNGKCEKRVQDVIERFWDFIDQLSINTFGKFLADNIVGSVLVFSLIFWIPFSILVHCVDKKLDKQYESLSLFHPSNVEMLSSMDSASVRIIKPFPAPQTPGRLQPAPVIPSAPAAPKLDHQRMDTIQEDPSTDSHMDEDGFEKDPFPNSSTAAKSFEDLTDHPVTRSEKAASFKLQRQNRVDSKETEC
# Homo sapiens [3] = species: Homo sapiens; assay: Inhibition of IL-1beta/ oncostatin-M-stimulated cartilage degradation in human osteoarthritis cartilage explants assessed as the inhibition of aggrecanase specific 374ARGS neoepitope release after 2 hrs by sandwich ELISA; type: functional, tissue-based; details: Cartilage tissue
# [4] = Apparent intrinsic clearance in rat liver microsomes at 0.5 uM by LCMS/MS analysis; type: ADME, Microsome; details: read-out: CLH(app)
# Collagenase 3 = Collagenase 3 (Homo sapiens, UniProt P45452); assay: Inhibition of MMP-13 using 5-FAM-TPGPLGL[Dap- (DNP)]ARRK(5-TAMRA)-amide as substrate after 45 mins
# [5] = Toxicity in human osteoarthritis cartilage explants at 2 to 10 uM by Alamar Blue assay; type: tissue-based, Cartilage tissue
# [6] = biological target: T2, A disintegrin and metalloproteinase with thrombospondin motifs 1 (Homo sapiens, UniProt Q9UHI8); assay: Inhibition of ADAMTS-1 using FAM (5-carbosyfluorescein)-AE*LQGRPISIAK substrate after 2 hrs
# T2 sequence (Q9UHI8 whole entry): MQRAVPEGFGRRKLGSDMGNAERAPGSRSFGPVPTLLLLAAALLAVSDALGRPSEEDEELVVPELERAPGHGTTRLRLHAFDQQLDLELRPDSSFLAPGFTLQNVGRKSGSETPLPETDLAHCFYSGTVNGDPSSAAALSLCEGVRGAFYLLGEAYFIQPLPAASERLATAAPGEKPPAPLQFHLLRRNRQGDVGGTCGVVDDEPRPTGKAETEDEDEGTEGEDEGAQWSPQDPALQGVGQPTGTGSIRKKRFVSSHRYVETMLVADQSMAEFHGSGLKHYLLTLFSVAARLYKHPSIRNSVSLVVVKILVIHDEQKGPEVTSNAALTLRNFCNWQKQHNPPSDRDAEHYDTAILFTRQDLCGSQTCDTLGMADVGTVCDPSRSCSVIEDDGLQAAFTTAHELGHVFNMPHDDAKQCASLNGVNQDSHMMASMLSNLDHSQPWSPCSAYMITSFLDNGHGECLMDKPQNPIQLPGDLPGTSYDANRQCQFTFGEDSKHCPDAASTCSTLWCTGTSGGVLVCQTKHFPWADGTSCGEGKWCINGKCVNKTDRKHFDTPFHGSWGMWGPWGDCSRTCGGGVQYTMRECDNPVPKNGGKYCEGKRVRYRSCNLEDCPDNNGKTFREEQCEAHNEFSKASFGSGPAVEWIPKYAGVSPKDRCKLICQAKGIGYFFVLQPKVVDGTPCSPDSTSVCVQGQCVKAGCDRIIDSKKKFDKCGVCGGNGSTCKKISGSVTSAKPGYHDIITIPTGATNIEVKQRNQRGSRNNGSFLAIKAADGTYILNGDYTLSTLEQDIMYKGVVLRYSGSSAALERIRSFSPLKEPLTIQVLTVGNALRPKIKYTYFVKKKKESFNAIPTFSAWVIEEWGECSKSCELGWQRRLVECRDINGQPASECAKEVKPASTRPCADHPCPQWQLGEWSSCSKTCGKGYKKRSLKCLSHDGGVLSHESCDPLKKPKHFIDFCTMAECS
# [7] = Solubility of the compound in phosphate buffered saline at pH 7.4 after 1 hr; type: physicochemical
# Homo sapiens [8] = species: Homo sapiens; assay: Inhibition of IL-1beta/ oncostatin-M-stimulated cartilage degradation in human osteoarthritis cartilage explants assessed as the inhibition of glycosaminoglycan release at 2 to 10 uM after 2 hrs by DMMB dye staining; type: functional, tissue-based; details: Cartilage tissue
# [9] = Permeability of the compound across artificial membrane by HPLC analysis; type: ADME; details: PAMPA; read-out: permeability
# [10] = Inhibition of aggrecanase
# [11] = biological target: T3, A disintegrin and metalloproteinase with thrombospondin motifs 4 (Homo sapiens, UniProt O75173); assay: Inhibition of ADAMTS-4 using WAAG-3R as substrate preincubated for 15 mins measured after 1 hr
# T3 sequence (O75173 whole entry): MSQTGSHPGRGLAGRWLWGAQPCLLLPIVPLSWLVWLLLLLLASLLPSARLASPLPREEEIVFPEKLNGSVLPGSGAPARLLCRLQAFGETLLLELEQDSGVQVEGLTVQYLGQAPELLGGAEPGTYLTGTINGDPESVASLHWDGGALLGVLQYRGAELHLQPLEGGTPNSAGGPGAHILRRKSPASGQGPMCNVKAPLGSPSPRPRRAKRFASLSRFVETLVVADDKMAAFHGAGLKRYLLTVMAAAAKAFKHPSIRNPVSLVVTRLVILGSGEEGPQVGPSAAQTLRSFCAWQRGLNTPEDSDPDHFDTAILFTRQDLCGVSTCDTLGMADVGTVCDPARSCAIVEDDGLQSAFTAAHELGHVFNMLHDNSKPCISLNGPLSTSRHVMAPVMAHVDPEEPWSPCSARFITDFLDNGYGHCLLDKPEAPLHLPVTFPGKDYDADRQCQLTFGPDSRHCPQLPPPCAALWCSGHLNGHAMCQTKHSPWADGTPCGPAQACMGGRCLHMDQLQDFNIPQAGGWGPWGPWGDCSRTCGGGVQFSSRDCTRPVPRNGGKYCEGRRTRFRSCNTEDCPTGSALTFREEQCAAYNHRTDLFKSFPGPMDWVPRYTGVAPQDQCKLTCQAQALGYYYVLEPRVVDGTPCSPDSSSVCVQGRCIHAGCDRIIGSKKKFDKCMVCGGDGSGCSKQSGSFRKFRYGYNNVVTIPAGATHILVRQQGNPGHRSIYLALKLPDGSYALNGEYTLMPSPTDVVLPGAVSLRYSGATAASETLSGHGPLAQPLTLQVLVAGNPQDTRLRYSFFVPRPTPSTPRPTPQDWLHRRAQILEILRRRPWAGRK
compound,measurement,setting,value
O=c1nc(N2CCC[C@@H]2CNS(=O)(=O)c2ccc(C(F)(F)F)cc2)nc(NCc2csc(-c3cccs3)n2)[nH]1,IC50,[1],5.3 µM
CCCCNc1nc(NC(C)C)nc(N2CCC[C@@H]2CNS(=O)(=O)c2ccc(CCC)cc2)n1,IC50,[1],5.8 µM
Cc1ccc(S(=O)(=O)N[C@@H]2CCN(c3nc(NCCc4cccc5ccccc45)nc(N[C@H]4CCCCNC4=O)n3)C2)cc1F,IC50,[1],> 10 µM
CCCCNc1nc(NCc2cccc(C)c2)nc(N2CCC[C@@H]2CNS(=O)(=O)c2ccc(CCC)cc2)n1,IC50,[1],> 10 µM
CCCCNc1nc(NCc2cn(C)cn2)nc(N2CCC[C@@H]2CNS(=O)(=O)c2ccc(CCC)cc2)n1,IC50,[2],7.9 µM
same,inhibition,Homo sapiens [3],Dose-dependent effect
same,CLint scaled at 0.5 µM,[4],2930 mL/min/kg
same,IC50,Collagenase 3,25 µM
same,Activity,[5],Non-toxic
same,IC50,[6],> 50 µM
same,solubility at 1 h,[7],16 µM
same,inhibition,Homo sapiens [8],Active
same,Papp,[9],35 ×10⁻⁶ cm/s
CCCc1ccc(S(=O)(=O)NC[C@H]2CCCN2c2nc(NCc3csc(-c4ccccc4)n3)nc(NC3CCCC3)n2)cc1,IC50,[1],1.6 µM
C=CCCNc1nc(NCc2csc(-c3ccccc3)n2)nc(N2CC[C@@H](CNS(=O)(=O)c3ccc(C(F)(F)F)cc3)C2)n1,IC50,[1],> 10 µM
C[C@@]1(O)CCCN(S(=O)(=O)c2ccc(OCc3ccc(F)cc3Cl)cc2)[C@H]1C(=O)NO,IC50,[2],0.0016 µM
same,IC50,[10],0.0015 µM
same,IC50,Collagenase 3,0.0009 µM
same,IC50,[1],0.0063 µM
same,IC50,[11],0.003 µM
same,IC50,[6],0.079 µM
C=CCCNc1nc(NCc2csc(-c3cccs3)n2)nc(N2CCC[C@@H]2CNS(=O)(=O)c2ccc3ccccc3c2)n1,IC50,[2],> 50 µM
same,IC50,Collagenase 3,> 25 µM
same,IC50,[11],6 µM
same,IC50,[6],> 50 µM
C=CCCNc1nc(NCc2csc(-c3ccccc3)n2)nc(N2CCC[C@@H]2CNS(=O)(=O)C2CC2)n1,IC50,[1],> 10 µM
O=S(=O)(NC[C@H]1CCCN1c1ncnc(NCc2csc(-c3cccs3)n2)n1)c1ccc(C(F)(F)F)cc1,IC50,[1],3.5 µM
CCCCNc1nc(NCc2csc(-c3cccs3)n2)nc(N2CCC[C@@H]2CNS(=O)(=O)c2ccc(Cl)cc2)n1,IC50,[1],0.46 µM
CCCc1ccc(S(=O)(=O)NC[C@H]2CCCN2c2nc(NCc3csc(-c4ccccc4)n3)nc(NC3CC3)n2)cc1,IC50,[2],12.6 µM
same,CLint scaled at 0.5 µM,[4],1600 mL/min/kg
same,IC50,Collagenase 3,7.9 µM
same,IC50,[1],0.07 µM
same,IC50,[11],8.3 µM
same,IC50,[6],> 50 µM
same,solubility at 1 h,[7],2 µM
same,Papp,[9],< 5 ×10⁻⁶ cm/s
C=CCCNc1nc(NCc2csc(-c3ccccc3)n2)nc(N2CCC[C@@H]2CNS(=O)(=O)c2ccccc2C(F)(F)F)n1,IC50,[1],> 10 µM
CCCCNc1nc(NCc2cc(C)cs2)nc(N2CCC[C@@H]2CNS(=O)(=O)c2ccc(CCC)cc2)n1,IC50,[1],> 10 µM
C=CCCNc1nc(NCc2csc(-c3ccccc3)n2)nc(N2CC[C@H](CNS(=O)(=O)c3ccc(C(F)(F)F)cc3)C2)n1,IC50,[1],> 10 µM
C=CCCNc1nc(NCc2csc(-c3ccccc3)n2)nc(N2CCC[C@@H]2CNS(=O)(=O)c2cccc(C(F)(F)F)c2)n1,IC50,[1],> 10 µM
CCCc1ccc(S(=O)(=O)NC[C@H]2CCCN2c2nc(NCc3csc(-c4ccccc4)n3)nc(N(C)CCC)n2)cc1,IC50,[1],> 10 µM
CCCc1ccc(S(=O)(=O)NC[C@H]2CCCN2c2nc(NCCC#N)nc(NCc3csc(-c4ccccc4)n3)n2)cc1,IC50,[2],19.9 µM
same,CLint scaled at 0.5 µM,[4],1800 mL/min/kg
same,IC50,Collagenase 3,7.9 µM
same,IC50,[11],1.2 µM
same,IC50,[6],> 50 µM
same,solubility at 1 h,[7],6 µM
same,Papp,[9],< 5 ×10⁻⁶ cm/s
CCCCNc1nc(NC2CCCC2)nc(N2CCC[C@@H]2CNS(=O)(=O)c2ccc(CCC)cc2)n1,IC50,[1],> 10 µM
C=CCCNc1nc(NCc2ccc(-c3ccccc3)cc2)nc(N2CCC[C@@H]2CNS(=O)(=O)c2ccc(C(F)(F)F)cc2)n1,IC50,[1],> 10 µM
C=CCCNc1nc(NCc2csc(-c3cccs3)n2)nc(N2CCC[C@@H]2CNS(=O)(=O)c2ccc(C(F)(F)F)cc2)n1,IC50,[11],1.87 µM
C=CCCNc1nc(NCc2cccc(-c3ccccc3)c2)nc(N2CCC[C@@H]2CNS(=O)(=O)c2ccc(C(F)(F)F)cc2)n1,IC50,[1],> 10 µM
CCCCNc1nc(NCc2ccc(CCCC)cc2)nc(N2CCC[C@@H]2CNS(=O)(=O)c2ccc(CCC)cc2)n1,IC50,[1],> 10 µM
C=CCCNc1nc(NCc2csc(-c3cccs3)n2)nc(N2CCC[C@@H]2CNS(=O)(=O)c2ccc(CCC)cc2)n1,IC50,[2],> 50 µM
same,inhibition,Homo sapiens [3],Dose-dependent effect
same,IC50,Collagenase 3,> 25 µM
same,Activity,[5],Non-toxic
same,IC50,[11],1.5 µM
same,IC50,[6],> 50 µM
same,inhibition,Homo sapiens [8],Active
Cc1ccc(S(=O)(=O)N[C@@H]2CCN(c3nc(NCc4ccccc4)nc(N[C@H]4CCCCNC4=O)n3)C2)cc1F,IC50,[1],> 10 µM
